# Entries after “also recorded” stand apart in the source; their conditions may differ.
# How the values were obtained:
# [1] = tested on: pseudotyped particles bearing the SARS-CoV-2 B.1 S protein; format: cell-based; conditions: TMPRSS2-independent (cathepsin L-dependent) entry
# [2] = tested on: particles pseudotyped with the glycoprotein of vesicular stomatitis virus (VSV-G); format: cell-based
# [3] = tested on: pseudotyped particles bearing the SARS-CoV-2 B.1 S protein; format: cell-based; conditions: TMPRSS2-dependent entry
# [4] = tested on: particles pseudotyped with the glycoprotein of vesicular stomatitis virus (VSV-G); format: cell-based; remark: listed apart in the source
# SARS-CoV-2 = tested on: SARS-CoV-2; set-up: method as in PMID 32142651, PMID 33676899, PMID 33393462, PMID 32312781, PMID 35382133; conditions: cell culture; cited from earlier work
# SARS-CoV-2 infection = conditions: cited from earlier work; for benefit to COVID-19 patients: clinical trials, oral (camostat), intravenous (nafamostat)
# MCF-10A cells = assay: AlamarBlue cell viability assay; conditions: concentrations up to 100 µM
# salmon testes DNA = assay: UV-thermal DNA denaturation with salmon testes DNA; conditions: compound to DNA base ratio 0.1, phosphate buffer pH 7
# Description: UV thermal denaturation experiments
# Thermal melting experiments were conducted with a Varian Cary 300 Bio spectrophotometer equipped
# with a 6×6 multicell temperature-controlled block. Temperatures were monitored with a thermistor
# inserted into a 1 cm quartz cuvette containing the same volume of water as in the sample cells. Absorbance
# changes at 260 nm were monitored from a range of 30 °C to 90 °C with a heating rate of 1 °C min -1 and a
# data collection rate of five points per °C. The salmon sperm DNA was purchased from Sigma Aldrich
# (extinction coefficient ε260= 6600 M-1 cm-1). A quartz cell with a 1 cm path length was filled with a 1 mL
# solution of DNA or DNA-compound complex.
# were prepared in a phosphate buffer ([10 mM K2HPO4/KH2PO4], adjusted to pH 7) so that a compound to
# DNA base ratio of 0.1 was obtained. The thermal melting temperatures of the duplex or duplex-compound
# complex obtained from the first derivative of the melting curves are reported.
# poly(dA•dT)2 = tested on: poly(dA•dT)2; set-up: method as in PMID 18247550; conditions: DNA oligo rich in AT pairs; cited from earlier work
molecule,measurement,setting,value
"CN(C)C(=O)COC(=O)Cc1ccc(OC(=O)c2ccc(NC(=N)N)cc2)cc1 [Camostat, camostat]",SARS-CoV-2 S protein-driven entry into Vero76 cells,[1],not inhibited
same,VSV-G-driven entry into Vero76 cells,[2],not inhibited
same,SARS-CoV-2 S protein-mediated entry into Calu-3 cells,[3],inhibited
same,VSV-G-driven entry into Calu-3 cells,[4],reverse observation
same,inhibition of SARS-CoV-2 infection,SARS-CoV-2,inhibit SARS‐CoV‐2 infection with high efficiency
same,benefit to COVID-19 patients,SARS-CoV-2 infection,little if any benefit
N=C(N)Nc1ccc(NC(=S)Nc2ccccc2)cc1 [Compound 2],IC50,MCF-10A cells,could not be found
same,cytotoxicity (cell death),MCF-10A cells; 72 hours,no cytotoxicity; also recorded: no significant cell‐death was detected
same,ΔTm,salmon testes DNA,0.65 °C
N=C(N)Nc1ccc(NC(=S)Nc2ccccn2)cc1 [Compound 20],ΔTm,salmon testes DNA,−0.25 °C
"N=C(N)c1ccc2cc(OC(=O)c3ccc(N=C(N)N)cc3)ccc2c1 [Nafamostat, nafamostat]",benefit to COVID-19 patients,SARS-CoV-2 infection,little if any benefit
CCN(CC)CCCC(C)Nc1ccnc2cc(Cl)ccc12 (centres unmarked) [chloroquine],SARS-CoV-2 S protein-driven entry into Vero76 cells,[1],reduced by the highest concentration
same,VSV-G-driven entry into Vero76 cells,[2],reduced by the highest concentration
same,VSV-G-driven entry into Calu-3 cells,[4],reverse observation
N=C(N)Nc1ccc(NC(=S)Nc2ccc(NC(=N)N)cc2)cc1 [hit‐compound],ΔTm,poly(dA•dT)2,23.0 °C
aprotinin,clinical benefit in COVID-19 patients,SARS-CoV-2 infection; aerosolized,of clinical benefit
same,tolerability in COVID-19 patients,SARS-CoV-2 infection; aerosolized,well tolerated
